How the values were obtained:
[1] = target: T1, peak hNav1.5 (Homo sapiens, UniProt Q14524); experiment: Automated patch clamp, peak hNav1.5 current block; format: cell-based; conditions: for nH (=constant), peak hNav1.5 Na+ current inhibition: Hill slope held constant in fit
T1 construct: expressed in transfected cells; host or cells: HEK293 or CHO, depending on site

[2] = based on CiPA evaluations; cited from earlier work
[3] = target: T2, late hNav1.5 (Homo sapiens, UniProt Q14524); experiment: Automated patch clamp, late hNav1.5 current block (ATX-II activated); format: cell-based; conditions: for Late hNav1.5 Na+ current inhibition, Mean: 1.00E-05 mol/L
T2 construct: expressed in transfected cells; host or cells: HEK293 or CHO, depending on site
T2 sequence (Q14524 whole entry): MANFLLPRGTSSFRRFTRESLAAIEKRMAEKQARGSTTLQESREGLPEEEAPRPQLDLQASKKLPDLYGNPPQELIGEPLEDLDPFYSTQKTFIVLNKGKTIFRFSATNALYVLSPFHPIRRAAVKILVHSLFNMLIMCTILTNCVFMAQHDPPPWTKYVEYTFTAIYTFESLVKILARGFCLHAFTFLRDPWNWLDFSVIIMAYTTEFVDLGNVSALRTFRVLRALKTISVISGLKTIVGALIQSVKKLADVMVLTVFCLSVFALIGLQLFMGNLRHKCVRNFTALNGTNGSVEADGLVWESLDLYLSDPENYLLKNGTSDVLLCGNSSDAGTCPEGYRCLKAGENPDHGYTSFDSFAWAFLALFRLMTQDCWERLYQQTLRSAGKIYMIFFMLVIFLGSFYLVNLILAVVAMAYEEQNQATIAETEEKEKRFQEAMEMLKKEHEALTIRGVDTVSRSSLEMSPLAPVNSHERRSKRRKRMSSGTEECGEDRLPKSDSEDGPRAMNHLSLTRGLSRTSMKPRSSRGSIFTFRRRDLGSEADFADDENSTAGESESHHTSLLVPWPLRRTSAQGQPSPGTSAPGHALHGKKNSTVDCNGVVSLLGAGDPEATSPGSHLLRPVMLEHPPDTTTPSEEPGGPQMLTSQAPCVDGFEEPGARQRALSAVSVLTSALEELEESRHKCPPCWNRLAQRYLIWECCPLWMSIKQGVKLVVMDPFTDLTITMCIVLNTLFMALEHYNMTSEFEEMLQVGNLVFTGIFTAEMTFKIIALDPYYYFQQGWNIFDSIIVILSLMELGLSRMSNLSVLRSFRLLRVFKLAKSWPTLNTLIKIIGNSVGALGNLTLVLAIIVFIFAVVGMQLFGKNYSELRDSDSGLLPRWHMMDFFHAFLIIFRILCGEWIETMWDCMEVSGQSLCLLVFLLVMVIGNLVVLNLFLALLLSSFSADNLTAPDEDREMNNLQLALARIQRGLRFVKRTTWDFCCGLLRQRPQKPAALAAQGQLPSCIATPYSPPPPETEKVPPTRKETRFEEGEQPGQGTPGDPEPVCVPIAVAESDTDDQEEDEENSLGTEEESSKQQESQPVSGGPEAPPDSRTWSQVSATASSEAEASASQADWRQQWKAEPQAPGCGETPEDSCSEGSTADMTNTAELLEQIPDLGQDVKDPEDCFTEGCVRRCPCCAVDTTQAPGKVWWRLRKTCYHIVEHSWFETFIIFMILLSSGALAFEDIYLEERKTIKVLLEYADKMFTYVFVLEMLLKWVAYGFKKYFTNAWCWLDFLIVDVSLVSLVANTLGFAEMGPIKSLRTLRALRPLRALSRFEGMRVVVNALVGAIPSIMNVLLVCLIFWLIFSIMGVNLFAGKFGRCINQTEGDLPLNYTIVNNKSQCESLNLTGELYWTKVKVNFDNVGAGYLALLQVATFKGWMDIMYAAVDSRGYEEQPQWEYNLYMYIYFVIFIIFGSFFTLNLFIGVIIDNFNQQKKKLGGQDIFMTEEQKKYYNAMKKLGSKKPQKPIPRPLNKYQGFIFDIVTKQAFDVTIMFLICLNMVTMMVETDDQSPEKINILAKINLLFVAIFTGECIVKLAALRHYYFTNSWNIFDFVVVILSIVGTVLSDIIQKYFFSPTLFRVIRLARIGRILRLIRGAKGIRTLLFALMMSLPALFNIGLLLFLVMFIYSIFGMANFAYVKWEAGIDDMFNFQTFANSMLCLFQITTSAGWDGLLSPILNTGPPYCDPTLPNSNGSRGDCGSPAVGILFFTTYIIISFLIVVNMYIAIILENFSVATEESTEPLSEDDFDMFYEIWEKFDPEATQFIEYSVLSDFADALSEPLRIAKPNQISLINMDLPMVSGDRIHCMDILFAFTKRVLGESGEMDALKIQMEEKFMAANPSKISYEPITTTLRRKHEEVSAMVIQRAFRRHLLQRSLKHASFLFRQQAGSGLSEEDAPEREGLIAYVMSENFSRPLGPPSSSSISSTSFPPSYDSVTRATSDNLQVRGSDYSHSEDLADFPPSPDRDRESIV
Experimental: However, all external solutions contained 30 nM ATX-II in order to activate late current. Late current was measured at its maximum during the repolarizing ramp.
Concentration-response relationships for each test article were independently investigated, i.e., each cell received only one test article, typically evaluating multiple concentrations in a cumulative fashion (lowest to highest concentrations). However, some platforms tested only one concentration per well. Each concentration response was based on a minimum of four concentrations, with a minimum of three wells used for each concentration. In cases of high variability, more cells per concentration were recorded. Prior to drug addition, cells received an addition of vehicle to measure non-test article-related effects such as addition artifacts. At the end of the experiment, a supramaximal concentration of a known inhibitory reference compound was applied to assess leak current and appropriate responsiveness of the test system.
(§1) The steady state current at each concentration was used to determine the concentration-response relationships. Mean concentration-response data were fitted to a standard sigmoidal four-parameter logistic equation (GraphPad Prism 7; GraphPad Inc., La Jolla, CA) of the form: Y=Bottom+(Top−Bottom)/(1+10^∧(LogIC50−X)∗HillSlope) where Y is the current inhibition (in % of pre-drug control), X is the logarithm of drug concentration, and IC50 is the drug concentration producing half-maximal current inhibition. Curve fitting was performed using the following constraints: Top = 100%, Bottom = 0%, Hill Slope <2. No curve fitting was performed in cases with an obvious lack of a concentration-dependent current inhibition and/or small effect size (approximately ≤20%).

[4] = target: hCav1.2 (Homo sapiens, UniProt Q13936); experiment: Automated patch clamp, hCav1.2 current block; conditions: for IC50: log IC50, half-maximal inhibitory concentration
Experimental: Peak current was measured during the step to 0 mV. Leak current was measured after applying a saturating concentration of a blocker such as cadmium (200 µM) at the end of each experiment to completely block hCav1.2 current.
Concentration-response relationships for each test article were independently investigated, i.e., each cell received only one test article, typically evaluating multiple concentrations in a cumulative fashion (lowest to highest concentrations). However, some platforms tested only one concentration per well. Each concentration response was based on a minimum of four concentrations, with a minimum of three wells used for each concentration. In cases of high variability, more cells per concentration were recorded. Prior to drug addition, cells received an addition of vehicle to measure non-test article-related effects such as addition artifacts. At the end of the experiment, a supramaximal concentration of a known inhibitory reference compound was applied to assess leak current and appropriate responsiveness of the test system. While it was recommended that a separate group of cells (n ≥ 3) be recorded for each experimental day to determine the baseline response to vehicle and to address day-to-day variability, this was not verified.
These criteria were applied to all APC platforms.
as §1

[5] = site s02_p2, corrected for rundown

T1 sequence (Q14524 whole entry): as above

With C=C[C@H]1C[N@@]2CC[C@H]1C[C@@H]2[C@@H](O)c1ccnc2ccc(OC)cc12 [qui, quinidine] the “Peak hNav1.5 Na+ current inhibition, Mean” value ([1]; site_platform s01_p1, 1.00E-05 mol/L) was 72.9%, the “Peak hNav1.5 Na+ current inhibition, Mean” value ([1]; site_platform s01_p1, 1.00E-07 mol/L) was 51.7% and the “nH (=constant), peak hNav1.5 Na+ current inhibition” value ([1]; site_platform s01_p1) was 1. For the same compound, the “nH (=constant), peak hNav1.5 Na+ current inhibition” value ([1]; site_platform s02_p2) was 1, the “nH (=constant), peak hNav1.5 Na+ current inhibition” value ([1]; site_platform s04_p3) was 1 and the “nH (=constant), peak hNav1.5 Na+ current inhibition” value ([1]; site_platform s06_p4) was 1. For the same compound, the “nH (=constant), peak hNav1.5 Na+ current inhibition” value ([1]; site_platform s07_p6) was 1, the “nH, Hill slope, peak hNav1.5 inhibition” value ([1]; site_platform s10_p3) was 1 and the “nH, Hill slope, peak hNav1.5 inhibition” value ([1]; site_platform s11_p1) was 1. For the same compound, the “Peak hNav1.5 Na+ current inhibition, Mean” value ([1]; site_platform s11_p1, 1.00E-05 mol/L) was 30.0%, the “nH, Hill slope, peak hNav1.5 inhibition” value ([1]; site_platform s12_p2) was 1 and the “nH, Hill slope, peak hNav1.5 inhibition” value ([1]; site_platform s13_p2) was 1. For the same compound, the “nH, Hill slope, peak hNav1.5 inhibition” value ([1]; site_platform s14_p1) was 1, the “nH, Hill slope, peak hNav1.5 inhibition” value ([1]; site_platform s15_p1) was 1 and the “Peak hNav1.5 Na+ current inhibition, Mean” value ([1]; site_platform s15_p1, 1.00E-05 mol/L) was 52.7%. For the same compound, the “nH, Hill slope, peak hNav1.5 inhibition” value ([1]; site_platform s16_p3) was 1, the “nH, Hill slope, peak hNav1.5 inhibition” value ([1]; site_platform s17_p1) was 1 and the “Peak hNav1.5 Na+ current inhibition, Mean” value ([1]; site_platform s17_p1, 1.00E-05 mol/L) was 54.0%. The “nH, Hill slope, peak hNav1.5 inhibition” value ([1]; site_platform s18_p1) was 1, the “nH, Hill slope, peak hNav1.5 inhibition” value ([1]; site_platform s19_p3) was 1 and the “TdP Risk Category” value [2] was “High”. The “nH, Hill slope, late hNav1.5 inhibition” value ([3]; site_platform s06_p4) was 0.91, the “Late hNav1.5 Na+ current inhibition, Mean” value ([3]; site_platform s06_p4) was 78.1% and the “nH, Hill slope, late hNav1.5 inhibition” value ([3]; site_platform s07_p6) was 0.74. The “Late hNav1.5 Na+ current inhibition, Mean” value ([3]; site_platform s07_p6) was 46.2%, the “nH, Hill slope, late hNav1.5 inhibition” value ([3]; site_platform s13_p2) was 0.63 and the “nH, Hill slope, late hNav1.5 inhibition” value ([3]; site_platform s14_p1) was 2.00. For the same compound, the “Late hNav1.5 Na+ current inhibition, Mean” value ([3]; site_platform s14_p1) was 68.8%.

For CN(CCOc1ccc(NS(C)(=O)=O)cc1)CCc1ccc(NS(C)(=O)=O)cc1 [dof, dofetilide], the “TdP Risk Category” value [2] is given as “High”.

COc1ccccc1OCC(O)CN1CCN(CC(=O)Nc2c(C)cccc2C)CC1 (stereo not shown) [ran, ranolazine] gave an IC50 [4, 5] of 501 µM, an IC50 ([4]; site s06_p4) of 186 µM and an IC50 ([4]; site s11_p1) of 1350 µM. It also gave an IC50 ([4]; site s14_p1) of 245 µM, an IC50 ([4]; site s16_p3) of 3090 µM and an IC50 ([4]; site s18_p1) of 148 µM. For the same compound, the “Peak hCav1.2 Ca2+ current inhibition, Mean” value ([4]; site s01_p1, 1.00E-04 mol/L) was 9.0%, the “Peak hCav1.2 Ca2+ current inhibition, Mean” value ([4]; site s01_p1, 3.00E-06 mol/L) was -2.7% and the “nH, Hill slope” value [4, 5] was 0.74. For the same compound, the “Peak hCav1.2 Ca2+ current inhibition, Mean” value ([4]; site s02_p2, corrected for rundown, 1.00E-04 mol/L) was 22.9%, the “Peak hCav1.2 Ca2+ current inhibition, Mean” value ([4]; site s02_p2, corrected for rundown, 3.00E-06 mol/L) was -1.8% and the “nH, Hill slope” value ([4]; site s06_p4) was 2.00. The “Peak hCav1.2 Ca2+ current inhibition, Mean” value ([4]; site s06_p4, 1.00E-04 mol/L) was 23.0%, the “Peak hCav1.2 Ca2+ current inhibition, Mean” value ([4]; site s06_p4, 3.00E-06 mol/L) was 12.9% and the “nH, Hill slope” value ([4]; site s11_p1) was 0.32. The “Peak hCav1.2 Ca2+ current inhibition, Mean” value ([4]; site s11_p1, 1.00E-04 mol/L) was 33.0%, the “Peak hCav1.2 Ca2+ current inhibition, Mean” value ([4]; site s11_p1, 3.00E-06 mol/L) was 14.1% and the “nH, Hill slope” value ([4]; site s14_p1) was 1.42. For the same compound, the “Peak hCav1.2 Ca2+ current inhibition, Mean” value ([4]; site s14_p1, 1.00E-04 mol/L) was 21.7%, the “Peak hCav1.2 Ca2+ current inhibition, Mean” value ([4]; site s14_p1, 3.00E-06 mol/L) was -1.7% and the “nH, Hill slope” value ([4]; site s16_p3) was 0.24. The “Peak hCav1.2 Ca2+ current inhibition, Mean” value ([4]; site s16_p3, 1.00E-04 mol/L) was 31.8%, the “Peak hCav1.2 Ca2+ current inhibition, Mean” value ([4]; site s16_p3, 3.00E-06 mol/L) was 16.5% and the “nH, Hill slope” value ([4]; site s18_p1) was 2.00. The “Peak hCav1.2 Ca2+ current inhibition, Mean” value ([4]; site s18_p1, 1.00E-04 mol/L) was 36.1%, the “Peak hCav1.2 Ca2+ current inhibition, Mean” value ([4]; site s18_p1, 3.00E-06 mol/L) was -14.2% and the “TdP Risk Category” value [2] was “Low”.

In the case of CC(C)(C)c1ccc(C(O)CCCN2CCC(C(O)(c3ccccc3)c3ccccc3)CC2)cc1 (stereo not shown) [ter, terfenadine], the “nH, Hill slope” value ([4]; site s01_p1) is reported as 1.62, the “Peak hCav1.2 Ca2+ current inhibition, Mean” value ([4]; site s01_p1, 3.00E-07 mol/L) is reported as 35.6% and the “nH, Hill slope” value [4, 5] is reported as 1.40. For the same compound, the “Peak hCav1.2 Ca2+ current inhibition, Mean” value ([4]; site s02_p2, corrected for rundown, 3.00E-07 mol/L) was 74.7%, the “nH, Hill slope” value ([4]; site s04_p3) was 0.41 and the “Peak hCav1.2 Ca2+ current inhibition, Mean” value ([4]; site s04_p3, 3.00E-07 mol/L) was 32.9%. The “nH, Hill slope” value ([4]; site s16_p3) was 0.65, the “Peak hCav1.2 Ca2+ current inhibition, Mean” value ([4]; site s16_p3, 3.00E-07 mol/L) was 52.1% and the “nH, Hill slope” value ([4]; site s18_p1) was 2.00. For the same compound, the “Peak hCav1.2 Ca2+ current inhibition, Mean” value ([4]; site s18_p1, 3.00E-07 mol/L) was 56.4%.

For CN(C)CCCN1c2ccccc2Sc2ccc(Cl)cc21 [cpz, chlorpromazine], the “TdP Risk Category” value [2] is listed as “Intermediate”.

From paper PMC7101356, “Cross-site and cross-platform variability of automated patch clamp assessments of drug effects on human cardiac currents in recombinant cells” (Scientific Reports, 2020)
